ChEMBL document CHEMBL4808221, “Design and Synthesis of Novel c-di-GMP G-Quadruplex Inducers as Bacterial Biofilm Inhibitors” (J Med Chem, 2021)
Activity calls are given as the source filed them. No cut-off for these calls is given here.

How the values were obtained:
[1] = system: Pseudomonas aeruginosa; assay: Effect on extracellular polysaccharide in Pseudomonas aeruginosa PAO1 harboring wspF gene mutation assessed as reduction in EPS production at 0.15625 to 0.625 uM by congo red binding assay; format: functional, organism-based; details: dose 0.15625-0.625 µM
[2] = Binding affinity to guanosine monophosphate (unknown origin) at 5 uM by fluorescence method
[3] = system: c-di-GMP G-quadruplex; assay: Induction of c-di-GMP G-quadruplex formation in Pseudomonas aeruginosa PAO1 harboring wspF gene mutation assessed as reduction in cdrA expression at 1.25 uM by RT-PCR method
[4] = Binding affinity to r-NTP (unknown origin) at 5 uM by fluorescence method
[5] = Cytotoxicity against human AC16 cells assessed as cell survival at 1.25 uM incubated for 24 hrs by MTT assay relative to control; format: cell-based, AC16 [Human hybrid]; details: read-out: Survival
[6] = system: Bacteria; assay: Effect on RocR (unknown origin) assessed as induction of c-di-GMP degradation at 1.25 to 5 uM measured by HPLC method; details: dose 1.25-5 µM
[7] = system: Pseudomonas aeruginosa; assay: Effect on swarming capacity of Pseudomonas aeruginosa PAO1 harboring wspF gene mutation assessed as increase in motility at 3.75 uM incubated for 14 hrs relative to control; format: functional
[8] = system: Pseudomonas aeruginosa; assay: Antibacterial activity against Pseudomonas aeruginosa PAO1 harboring wspF gene mutation assessed as reduction in bacterial growth at 512 uM by crystal violet staining assay relative to control; format: functional, organism-based
[9] = Binding affinity to d-NTP (unknown origin) at 5 uM by fluorescence method
[10] = system: c-di-GMP G-quadruplex; assay: Induction of c-di-GMP G-quadruplex formation in Pseudomonas aeruginosa PAO1 harboring wspF gene mutation and LacZ reporter gene assessed as reduction in PelA expression by measuring decrease in lacZ activity at 0.3125 to 1.25 uM incubated for 4 hrs by absorbance method; details: dose 0.3125-1.25 µM
[11] = system: Bacteria; assay: Effect on WspR (unknown origin) assessed as reduction in c-di-GMP level at 1.25 to 5 uM measured by HPLC method; details: dose 1.25-5 µM
[12] = system: Pseudomonas aeruginosa; assay: Effect on extracellular polysaccharide in Pseudomonas aeruginosa PAO1 harboring wspF gene mutation assessed as reduction in EPS production at 1.25 uM by congo red binding assay relative to control; format: functional; set-up: scale not given: the % may be the effect or the level left
[13] = Binding affinity to c-di-GMP (unknown origin) at 5 uM using varying level of c-di-GMP by fluorescence method
[14] = system: Pseudomonas aeruginosa; assay: Antibacterial activity against Pseudomonas aeruginosa PAO1 harboring wspF gene mutation assessed as reduction in bacterial growth at 0.15625 to 2.5 uM by confocal microscopic method; format: functional, organism-based; details: dose 0.15625-2.5 µM
[15] = system: c-di-GMP G-quadruplex; assay: Induction of c-di-GMP G-quadruplex formation in Pseudomonas aeruginosa PAO1 harboring wspF gene mutation assessed as suppression of cdrA expression at 1.25 uM incubated for 15 hrs by transcriptome analysis
[16] = system: c-di-GMP G-quadruplex; assay: Induction of c-di-GMP G-quadruplex formation in Pseudomonas aeruginosa PAO1 harboring wspF gene mutation assessed as inhibition of biofilm formation incubated for 20 hrs by crystal violet staining assay relative to control; format: nucleic-acid assay
[17] = system: c-di-GMP G-quadruplex; assay: Induction of c-di-GMP G-quadruplex formation in Pseudomonas aeruginosa PAO1 harboring wspF gene mutation assessed as induction of fliD expression at 1.25 uM incubated for 15 hrs by transcriptome analysis
[18] = system: c-di-GMP G-quadruplex; assay: Induction of c-di-GMP G-quadruplex formation in Pseudomonas aeruginosa PAO1 harboring wspF gene mutation assessed as induction of flhA expression at 1.25 uM incubated for 15 hrs by transcriptome analysis
[19] = system: c-di-GMP G-quadruplex; assay: Downregulation of c-di-GMP level in Pseudomonas aeruginosa PAO1 harboring wspF gene mutation assessed as reduction in Alg44 expression at 1.25 uM incubated for 15 hrs by transcriptome analysis
[20] = system: c-di-GMP G-quadruplex; assay: Induction of c-di-GMP G-quadruplex formation in Pseudomonas aeruginosa PAO1 harboring wspF gene mutation assessed as induction of fleN expression at 1.25 uM incubated for 15 hrs by transcriptome analysis
[21] = system: Pseudomonas aeruginosa; assay: Effect on swarming capacity of Pseudomonas aeruginosa PAO1 harboring wspF gene mutation assessed as increase in motility at 5 uM incubated for 14 hrs relative to control; format: functional
[22] = system: c-di-GMP G-quadruplex; assay: Induction of c-di-GMP G-quadruplex formation in Pseudomonas aeruginosa PAO1 harboring wspF gene mutation assessed as reduction in pelB expression at 1.25 uM by RT-PCR method
[23] = system: c-di-GMP G-quadruplex; assay: Induction of c-di-GMP G-quadruplex formation in Pseudomonas aeruginosa PAO1 harboring wspF gene mutation assessed as induction of fleN expression at 1.25 uM by RT-PCR method
[24] = system: Pseudomonas aeruginosa; assay: Antibacterial activity against Pseudomonas aeruginosa PAO1 assessed as reduction in biofilm formation at 0.15625 to 1.25 uM by crystal violet staining method; format: functional, organism-based; details: dose 0.15625-1.25 µM
[25] = system: DNA; assay: Toxicity assessed as induction of Escherichia coli pBR322 DNA intercalation activity at 10 uM incubated for 10 mins by polyacrylamide gel electrophoresis method
[26] = system: c-di-GMP G-quadruplex; assay: Induction of c-di-GMP G-quadruplex formation in Pseudomonas aeruginosa PAO1 harboring wspF gene mutation assessed as induction of flhF expression at 1.25 uM incubated for 15 hrs by transcriptome analysis
[27] = system: c-di-GMP G-quadruplex; assay: Induction of c-di-GMP G-quadruplex formation in Pseudomonas aeruginosa […] assessed as inhibition of biofilm formation at 0.15625 to 1.25 uM by confocal microscopic method; format: nucleic-acid assay; details: PAO1, dose 0.15625-1.25 µM
[28] = system: c-di-GMP G-quadruplex; assay: Induction of c-di-GMP G-quadruplex formation in Pseudomonas aeruginosa PAO1 harboring wspF gene mutation assessed as inhibition of biofilm formation incubated for 24 hrs by confocal microscopic method; format: nucleic-acid assay
[29] = system: c-di-GMP G-quadruplex; assay: Downregulation of c-di-GMP level in Pseudomonas aeruginosa PAO1 harboring wspF gene mutation assessed as induction of tpbA expression at 1.25 uM incubated for 15 hrs by transcriptome analysis
[30] = system: c-di-GMP G-quadruplex; assay: Induction of c-di-GMP G-quadruplex formation in Pseudomonas aeruginosa PAO1 harboring wspF gene mutation assessed as induction of flgA expression at 1.25 uM incubated for 15 hrs by transcriptome analysis
[31] = system: c-di-GMP G-quadruplex; assay: Induction of c-di-GMP G-quadruplex formation in Pseudomonas aeruginosa PAO1 harboring wspF gene mutation assessed as induction of flhA expression at 1.25 uM by RT-PCR method
[32] = system: c-di-GMP G-quadruplex; assay: Induction of c-di-GMP G-quadruplex formation in Pseudomonas aeruginosa PAO1 harboring wspF gene mutation assessed as inhibition of biofilm formation at 1.25 uM incubated for 20 hrs by crystal violet staining assay relative to control; format: nucleic-acid assay
[33] = Cytotoxicity against human AC16 cells assessed as cell survival at 0.15625 to 10 uM incubated for 24 hrs by MTT assay relative to control; format: cell-based, AC16 [Human hybrid]; details: dose 0.15625-10 µM, read-out: Survival
[34] = system: Quadruplex DNA; assay: Induction of c-di-GMP G-quadruplex formation (unknown origin) measured at 300 nanometer by CD spectroscopy; format: nucleic-acid assay
[35] = system: Pseudomonas aeruginosa; assay: Effect on swarming capacity of Pseudomonas aeruginosa PAO1 harboring wspF gene mutation assessed as increase in motility at 2.5 uM incubated for 14 hrs relative to control; format: functional
[36] = system: c-di-GMP G-quadruplex; assay: Induction of c-di-GMP G-quadruplex formation in Pseudomonas aeruginosa PAO1 harboring wspF gene mutation assessed as reduction in pslE expression at 1.25 uM by RT-PCR method

Structure (SMILES): COc1cc(/C=C/c2sc3ccccc3[n+]2C)ccc1O.[I-]
- Activity [1]: Active
- Activity [2]: Active
- Activity [3]: Active
- Activity [4]: Active
- viability at 24 h, 1.25 µM [5]: 96%
- Activity [6]: inactive
- Activity [7]: 34%
- Activity [8]: inactive
- Activity [9]: Active
- Activity [10]: Active
- Activity [11]: inactive
- Activity [12]: 30%
- Activity [13]: Active
- Activity [14]: inactive
- Activity [15]: Active
- IC50 [16]: 880 nM
- Activity [17]: Active
- Activity [18]: Active
- Activity [19]: Active
- Activity [20]: Active
- Activity [21]: 77%
- Activity [22]: Active
- Activity [23]: Active
- Activity [24]: Active
- Activity [25]: Non-Toxic
- Activity [26]: Active
- Activity [27]: Active
- Activity [28]: Dose-Dependent Effect
- Activity [29]: Active
- Activity [30]: Active
- Activity [31]: Active
- inhibition [32]: 62.2%
- viability at 24 h, up to 10 µM [33]: > 90%
- Activity [34]: Active
- Activity [35]: 15%
- Activity [36]: Active
